Reference: US20250154163A1, “Pyrimidinone-Containing 17-Beta-Hydroxysteroid Dehydrogenase Type 13 Inhibitors” (ENANTA PHARMACEUTICALS, INC., priority 2023, published 2025)

Tests used:
[1] = target: T1, human HSD17β13 (stable HEK293T cell line overexpressing human HSD17β13) (Homo sapiens, UniProt Q7Z5P4); assay: HSD17β13 inhibitor cell-based screening assay (conversion of estradiol-d2 to estrone-d2 by RF-MS); conditions: conversion of estradiol-d2 to estrone-d2 after 24 hours
T1 construct: expressed in transfected cells
T1 sequence (Q7Z5P4 20-300): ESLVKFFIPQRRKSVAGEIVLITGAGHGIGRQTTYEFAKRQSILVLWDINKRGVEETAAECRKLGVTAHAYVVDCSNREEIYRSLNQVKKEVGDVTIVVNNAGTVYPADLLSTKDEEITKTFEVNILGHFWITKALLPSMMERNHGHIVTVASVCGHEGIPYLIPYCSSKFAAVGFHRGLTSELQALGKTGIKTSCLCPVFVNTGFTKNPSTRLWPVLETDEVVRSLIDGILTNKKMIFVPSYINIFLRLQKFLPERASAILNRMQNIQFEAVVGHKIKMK
Method in brief: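 Cellular IC50 is based on 24-h conversion of estradiol-d2 (5 μM final) to estrone-d2, measured by RF-MS in acetonitrile-precipitated supernatants. Assay uses human HSD17β13-overexpressing HEK293T cells (7.5E3/well, 1% charcoal/dextran FBS MEM), with compounds dosed as a 9-point 1:3 series to 10 μM final. ATPlite luminescence on overexpressing and parent lines measured viability.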

[2] = target: T2, Recombinant human 17β-HSD13 (Homo sapiens, UniProt Q7Z5P4); assay: 17β-HSD13 rapid-fire mass spectrometry assay (RF/MS assay); format: biochemical; conditions: inhibition of 17β-HSD13, RF/MS assay; HSD17B13 80 nM, LTB4 10 μM, NAD+ 0.5 mM, RT 3 h
T2 construct: host or cells: Sf9 insect cells
T2 sequence (Q7Z5P4 20-300): T1 sequence (Q7Z5P4 20-300)
Source text: 17(3-HSD13 rapid-fire mass spectrometry assay (RF/MS assay). Recombinant human 17β-HSD13 was expressed and purified from sf9 cells at Charles River Labs (Saffron Walden, UK). Leukotriene B4 (Catalog #71160-24-2) and 12-oxoleukotriene B4 (Catalog #20140) were purchased from Cayman Chemicals (Ann Arbor, MI). NAD+ (Catalog #N8285), BSA (Catalog #A7030), DMSO (Catalog #D2650), and Tween-20 (Catalog #11332465001) were purchased from Sigma (St. Louis, MO). Formic acid (Catalog #28905) was from ThermoFisher Scientific and 384 deep well PP microplates (Catalog #784261) were from Greiner Bio-One. In a typical IC50 assay performed in a 384w PP microplate, test compounds (0-100 μM) were incubated with HSD17B13 (80 nM), LTB4 (10 μM), and NAD^+ (0.5 mM) in 10 μL assay buffer (20 mM Tris (pH 7.5), BSA (0.005%), and Tween-20 (0.01%)) at RT for 3 h. The assays were quenched by adding 20 μL of 0.15% aqueous formic acid and the plates were frozen at −80° C. RF/MS analysis was performed at PureHoney Technologies (Billerica, MA) on a RapidFire RF300 system (Agilent Technologies, Inc.) coupled to an API 4000 triple quadrupole mass spectrometer (Sciex) equipped with Agilent RapidFire cartridge type A (C4). The mobile phase was 0.09% formic acid and 0.01% trifluoracetic acid in water (Buffer A) and 0.09% formic acid and 0.01% trifluoracetic acid in 80% aqueous acetonitrile (Buffer B). The RapidFire method conditions were the following: 250 ms aspirate, 3000 ms load/desalt, 4000 ms elute, and 500 ms re-equilibrate. RF-MS/MS was performed in negative polarity (−4500 V), the source temperature was 650° C., and gas 1 and gas 2 settings for nitrogen were set to 50. The curtain gas and collision gas were also nitrogen and were set to 20 and 12, respectively. Leukotriene B4 (335.3) and 12-oxoLeukotriene B4 (333.3) SRM transitions were optimized with Discovery Quant software and extracted ion counts for these analytes were determined.
Data Analysis. 17β-HSD13 enzyme activity was measured as percent conversion of extracted ion counts and normalized to high and low controls to determine percent residual activity at various concentrations of test compounds. Data was fitted to normalized activity (variable slope) versus concentration fit in GraphPad Prism 7 to determine IC50. All experiments were run in duplicates.
By using the above method, the inhibition of 17β-HSD13 was evaluated for the compounds of Formula (I). IC50 ranges are as follows: A is <0.1 μM; B is 0.1 μM-1.0 μM; C is 1.0 μM-10 μm; and D is >10 μM.

| Compound | IC50 [1] [nM] | IC50 [2] [nM] |
| --- | --- | --- |
| COc1ccc(-c2nc3sc4c(O)c(Br)ccc4c3c(=O)n2Cc2cnco2)c(C2CC2)c1 [Example 24, 7-bromo-2-(2-cyclopropyl-4-methoxyphenyl)-8-hydroxy-3-(oxazol-5-ylmethyl)benzo[4,5]thieno[2,3-d]pyrimidin-4(3H)-one] | < 100 | < 100 |
| COc1ccc(-c2nc3sc4c(O)cccc4c3c(=O)n2Cc2ocnc2F)c(C2CC2)c1 [Example 25, 2-(2-cyclopropyl-4-methoxyphenyl)-3-((4-fluorooxazol-5-yl)methyl)-8-hydroxybenzo[4,5]thieno[2,3-d]pyrimidin-4(3H)-one] | 100 to 500 | < 100 |
| COc1ccc(-c2nc3sc4c(O)c(N)ccc4c3c(=O)n2Cc2cnco2)c(C2CC2)c1 [Example 28, 7-amino-2-(2-cyclopropyl-4-methoxyphenyl)-8-hydroxy-3-(oxazol-5-ylmethyl)benzo[4,5]thieno[2,3-d]pyrimidin-4(3H)-one] | 1000 to 100000 | 100 to 1000 |
| COc1ccc(-c2nc3sc4c(ccc5[nH]c(=O)oc54)c3c(=O)n2Cc2cnco2)c(C2CC2)c1 [Example 29, 8-(2-cyclopropyl-4-methoxyphenyl)-7-(oxazol-5-ylmethyl)-3,7-dihydrooxazolo[5″,4″:3′,4′]benzo[1′,2′:4,5]thieno[2,3-d]pyrimidine-2,6-dione] | 500 to 1000 | > 10000 |
| COc1ccc(-c2nc3sc4c(ccc5[nH]c(=O)[nH]c54)c3c(=O)n2Cc2cnco2)c(C2CC2)c1 [Example 30, 8-(2-cyclopropyl-4-methoxyphenyl)-7-(oxazol-5-ylmethyl)-3,7-dihydro-1H-imidazo[4″,5″:3′,4′]benzo[1′,2′:4,5]thieno[2,3-d]pyrimidine-2,6-dione] | 1000 to 100000 | > 10000 |
| COc1ccc(-c2nc3sc4c(O)c(C)ccc4c3c(=O)n2Cc2cnco2)c(C2CC2)c1 [Example 32, 2-(2-cyclopropyl-4-methoxyphenyl)-8-hydroxy-7-methyl-3-(oxazol-5-ylmethyl)benzo[4,5]thieno[2,3-d]pyrimidin-4(3H)-one] | 100 to 500 | < 100 |
| COc1ccc(-c2nc3sc4cc(O)ccc4c3c(=O)n2Cc2cnco2)c(C2CC2)c1 [Example 36, 2-(2-cyclopropyl-4-methoxyphenyl)-7-hydroxy-3-(oxazol-5-ylmethyl)benzo[4,5]thieno[2,3-d]pyrimidin-4(3H)-one] | 1000 to 100000 | > 10000 |
| COc1ccc(-c2nc3sc4c(O)c(Cl)ccc4c3c(=O)n2Cc2cc(C)no2)c(C2CC2)c1 [Example 39, 7-chloro-2-(2-cyclopropyl-4-methoxyphenyl)-8-hydroxy-3-((3-methylisoxazol-5-yl)methyl)benzo[4,5]thieno[2,3-d]pyrimidin-4(3H)-one] | < 100 | < 100 |
| O=c1c2c(nc(-c3ccc(F)cc3C3CC3)n1Cc1cc(C(F)(F)F)no1)sc1c(O)c(Cl)ccc12 [Example 40, 7-chloro-2-(2-cyclopropyl-4-fluorophenyl)-8-hydroxy-3-((3-(trifluoromethyl)isoxazol-5-yl)methyl)benzo[4,5]thieno[2,3-d]pyrimidin-4(3H)-one] | < 100 | < 100 |
| CCc1ncc(Cn2c(-c3ccc(OC)cc3C3CC3)nc3sc4c(O)c(Cl)ccc4c3c2=O)s1 [Example 41, 7-chloro-2-(2-cyclopropyl-4-methoxyphenyl)-3-((2-ethylthiazol-5-yl)methyl)-8-hydroxybenzo[4,5]thieno[2,3-d]pyrimidin-4(3H)-one] | < 100 | < 100 |
| O=c1c2c(nc(-c3ccc(F)cc3C3CC3)n1Cc1cnco1)sc1c(O)c(Cl)ccc12 [Example 42, 7-chloro-2-(2-cyclopropyl-4-fluorophenyl)-8-hydroxy-3-(oxazol-5-ylmethyl)benzo[4,5]thieno[2,3-d]pyrimidin-4(3H)-one] | < 100 | < 100 |
| Cc1cc(Cn2c(-c3ccc(F)cc3C3CC3)nc3sc4c(O)c(Cl)ccc4c3c2=O)on1 [Example 43, 7-chloro-2-(2-cyclopropyl-4-fluorophenyl)-8-hydroxy-3-((3-methylisoxazol-5-yl)methyl)benzo[4,5]thieno[2,3-d]pyrimidin-4(3H)-one] | < 100 | < 100 |
| Cc1ncc(Cn2c(-c3ccc(F)cc3C3CC3)nc3sc4c(O)c(Cl)ccc4c3c2=O)o1 [Example 44, 7-chloro-2-(2-cyclopropyl-4-fluorophenyl)-8-hydroxy-3-((2-methyloxazol-5-yl)methyl)benzo[4,5]thieno[2,3-d]pyrimidin-4(3H)-one] | < 100 | < 100 |
| COc1ccc(-c2nc3sc4c(O)c(Cl)ccc4c3c(=O)n2Cc2cc(C(F)(F)F)no2)c(C2CC2)c1 [Example 48, 7-chloro-2-(2-cyclopropyl-4-methoxyphenyl)-8-hydroxy-3-((3-(trifluoromethyl)isoxazol-5-yl)methyl)benzo[4,5]thieno[2,3-d]pyrimidin-4(3H)-one] | < 100 | < 100 |
| O=c1c2c(nc(-c3ccc(F)cc3C3CC3)n1Cc1cnc(C3CC3)o1)sc1c(O)c(Cl)ccc12 [Example 50, 7-chloro-2-(2-cyclopropyl-4-fluorophenyl)-3-((2-cyclopropyloxazol-5-yl)methyl)-8-hydroxybenzo[4,5]thieno[2,3-d]pyrimidin-4(3H)-one] | < 100 | < 100 |
| O=c1c2c(nc(-c3ccc(F)cc3C3CC3)n1Cc1ccno1)sc1c(O)c(Cl)ccc12 [Example 52, 7-chloro-2-(2-cyclopropyl-4-fluorophenyl)-8-hydroxy-3-(isoxazol-5-ylmethyl)benzo[4,5]thieno[2,3-d]pyrimidin-4(3H)-one] | < 100 | < 100 |
| O=c1c2c(nc(-c3cc(F)c(F)cc3C3CC3)n1Cc1cnc(C(F)(F)F)nc1)sc1c(O)c(Cl)ccc12 [Example 63, 7-chloro-2-(2-cyclopropyl-4,5-difluorophenyl)-8-hydroxy-3-((2-(trifluoromethyl)pyrimidin-5-yl)methyl)benzo[4,5]thieno[2,3-d]pyrimidin-4(3H)-one] | < 100 | < 100 |
| O=c1c2c(nc(-c3cc(F)c(F)cc3C3CC3)n1Cc1cc(C(F)(F)F)on1)sc1c(O)c(Cl)ccc12 [Example 66, 7-chloro-2-(2-cyclopropyl-4,5-difluorophenyl)-8-hydroxy-3-((5-(trifluoromethyl)isoxazol-3-yl)methyl)benzo[4,5]thieno[2,3-d]pyrimidin-4(3H)-one] | < 100 | < 100 |
| CS(=O)(=O)c1ccc(-c2nc3sc4c(O)c(F)ccc4c3c(=O)n2Cc2cnc(C(F)(F)F)nc2)c(C2CC2)c1 [Example 71, 2-(2-cyclopropyl-4-(methylsulfonyl)phenyl)-7-fluoro-8-hydroxy-3-((2-(trifluoromethyl)pyrimidin-5-yl)methyl)benzo[4,5]thieno[2,3-d]pyrimidin-4(3H)-one] | < 100 | < 100 |
| CCOc1ccc(-c2nc3sc4c(O)c(Cl)ccc4c3c(=O)n2Cc2cnco2)c(C2CC2)c1 [Example 72, 7-chloro-2-(2-cyclopropyl-4-ethoxyphenyl)-8-hydroxy-3-(oxazol-5-ylmethyl)benzo[4,5]thieno[2,3-d]pyrimidin-4(3H)-one] | < 100 | < 100 |
| CC(C)Oc1ccc(-c2nc3sc4c(O)c(Cl)ccc4c3c(=O)n2Cc2cnco2)c(C2CC2)c1 [Example 73] | < 100 | < 100 |
